# Measured values reported in patent publication US20060270643A1, “Hyfroxyflutamide induced pathways related to androgen receptor negative prostate cancer cells” (priority 2002, published 2006).
# Values joined by “and” are separate entries in the source; they are usually repeats but may differ in a detail not shown here. Identical values can stand only once. “Also recorded” adds a separate entry of the source. Like-named read-outs stand apart in the source and are kept apart here.
# How the values were obtained:
# [1] = test system: p44/42 MAP kinase (ERK1 and 2); assay: Immunoblot of phosphorylated p44/42 MAP kinase in DU145 cells; assay type: cell-based, human
# Method: 7. […] (A) DU145 cells were grown in 100 mm dishes and serum-starved for 24 hours. The cells were lysed on ice. Equal amounts of cell lysate were analyzed by 12% SDS-PAGE and subsequent immunoblotted with anti-phospho ERK1/2 and anti-ERK1/2 antibodies. (B) Different cell lines, at 70 to 80% confluence, were lysed and immunoblotted with anti-AR polyclonal antibody, NH27. (C) DU145 cells were pre-incubated with MEK1/2 inhibitor U0126, or U0124 before HF, EGF, and ethanol treatment. Cells were lysed and immunoblotted with anti-phospho ERK1/2 and anti-ERK1/2 antibodies. (D) CWR2 and (E) PC3-AR cells were grown in 100 mm dishes and serum-starved for 24 hours. The cells were treated with HF, EGF or ethanol vehicle for 15 mins and immunoblotted with anti-phospho-ERK1/2 and anti-ERK1/2 antibodies. […] MMTV-ARE-Luc reporter plasmid was cotransfected with or without pSG5AR into DU145 cells. After 18 hours, cells were treated with 1 nM DHT, 1 μM HF or both for another 18 hours, and then harvested. Cell lysates were collected and assayed for the luciferase activity.
# 9. […] After 15 min treatment, cells were lysed and immunoblotted with anti-phospho ERK1/2 and antiERK1/2 antibodies. […] EGFR was immunoprecipitated from the cell lysates, and their phosphotyrosine level was determined by anti-phosphotyrosine antibody. All the results were visualized using enhanced chemiluminescence.
# 198. This assay uses a polyclonal antibody specific against the activated p44/42 MAP kinases (Cell Signaling Technology, Beverly, Mass.), which detects p44 and p42 MAP kinase (ERK1 and 2) only when catalytically activated by dual phosphorylation at Thr202 and Tyr204. DU145 cells were seeded at 1×10^5 cells per 100 mm plate and allowed to attach overnight and then the media were replaced with serum-free DMEM media for 24 hours. The cells were pre-treated with MAP kinase inhibitors, EGFR antibodies, or cycloheximide for 1 hour and followed by HF, EGF, or vehicle treatment. Cells were washed twice with PBS, harvested at indicated times, and lyzed with RIPA buffer for 30 min on ice. The protein concentrations were determined by Bradford assay, and equal amount of protein was resolved by SDS-PAGE. Gels were transferred, immunoblotted with p44/42 MAP kinase antibody (1/1000), and then incubated with secondary antibody. Proteins were visualized by the enhanced chemiluminescence system (NEN™ Life Science Products, Boston, Mass.). P44/42 MAP kinase (total ERK1/2) was blotted as a control.
# [2] = test system: association between Ras and Raf; assay: Ras-Raf immunoprecipitation assay in DU145 cells; assay type: cell-based, human; details: lysates of treated DU145 cells; 1 μM HF, 10 ng/ml EGF, 1 μM 9-cis retinoic acid
# Method: 8. […] (A) DU145 cells were treated with ethanol (lane 1), 10 ng/ml EGF (lane 2), 1 μM 9-cis retinoic acid (lane 3), and 1 μM HF (lane 4) after 24 hour serum starvation. Cells were lysed and 300 μg of total protein were immunoprecipitated with anti-Ras antibody, pulled-down by a protein A/G agarose beads, and detected with an anti-Raf antibody. (B) DU145 cells were transfected with pCDNA3.1 or pCDNA3.1-Ras N17 as indicated. After 24 hours serum starvation, the cells were treated with different ligands for 20 min, and then harvested. Western blots were performed with antibodies against phosphoERK1/2 and ERK1/2. The density of phospho-ERK1/2 shown as Optical Density (OD) were determined by the Versa Doc Imaging System (Bio-Rad) and quantified by Quantity One software.
# 200. Serum-stared and treated DU145 cells were lysed with RIPA buffer for 30 min on ice. Lysates were then centrifuiged at 12,000 g for 10 min at 4° C. and protein concentrations were determined by the Bradford assay. 500 μg of cell lysates were incubated for 4 hours with either anti-Ras or anti-EGFR antibody (1/100, Santa Cruz Biotechnology) to the protein-antibody mixture and then added in 20 μl of protein A/G plus-agarose (Santa Cruz Biotechnology) for another 4 hours incubation with constant rotation. The immunoprecipitates were washed four times with cold PBS, resolved by SDS-PAGE, and immunoblotted by anti-Raf-1 antibody, or anti-phospho-tyrosine monoclonal antibody (Oncogene Research, Calbiochem, La Jolla, Calif.). The results were visualized by chemiluminescence.
# [3] = test system: cyclin D1; assay: Western blot of cyclin D1 and cell cycle related gene products in DU145 cells; assay type: cell-based, human
# Method: (§1) 11. […] (A) DU145 cells were treated with HF (1 μM), or EGF (10 ng/ml), or ethanol vehicle for 12 hours after the serum starvation. Cells were lysed and blotted with anti-cyclin D1 antibody. (B) DU145 cells were serum starved for 24 hours and then co-transfected DN Ras or DN Raf together with […] Luc reporter with SuperFect (Qiagen). After 4 hours, the medium was changed to normal medium (10% serum) for 18 hours and then changed to serum starvation condition for another 24 hours and then treated with HF, EGF, or ethanol vehicle control. Cells were lysed for luciferase activity analysis.
# [4] = test system: DU145 cells; assay: Cell proliferation assay (hemacytometer counting); assay type: cell-based, human
# Method: 10. […] (A) DU145 cells were seeded in 10% FBS DMEM medium and 24 hours later cells were changed to serum free medium. 48 hours later changed the medium to 0.5% FBS medium and treated with ethanol, HF, or EGF. Every 24 hours, the cells were counted by hemacytometer. […]. […] (B) DU145 cells were seeded and transfected with anti-sense oligonucleotide of Ras (IRIS 2503: 5′-[…]-3′), Raf (IIUS: 5132:5′-[…]-3′) and HIV (5′-[…]-3′) (Chen, G., Oh, S., Monia B. P., and Stacey, D. W., J. Biol. Chem., 271: 28259-28265, 1996, Monia, B. P., et al., Proc. Natl. Acad. Sci. USA, 93: 15481-15484, 1996.) by SuperFect (Qiagen). 24 hour after serum starvation, we changed the cells to medium containing 0.5% FBS, and treated the cells as described in A. Cells were counted by hemacytometer every 24 hours. The cell lysate were blotted with anti-H-Ras and Raf antibodies and β-actin was blotted for loading control.
# 199. DU145 cells were seeded at 2×10^4/ml on 35 mm plates and allowed to attach overnight. Cells were kept in serum-free DMEM medium for 24 hours, and then media were replaced with DMEM-0.5% FBS and treated as indicated. Cells were trypsinized and counted with a hemacytometer at different times after treatments. For the antisense oligonuleotide experiments, cells were incubated with a fixed ratio of oligonucleotide versus SuperFect (2.5 μl of SuperFect per 100 nM oligo) for 4 hours and then the oligo-containing medium was replaced with DMEM-0.5% FBS. Cells were trypsinized and counted by hemacytometer at indicated times.
# [5] = test system: cyclin D1 promoter (−1745D1-Luc); assay: Cyclin D1 promoter luciferase reporter assay in DU145 cells; assay type: cell-based, human; details: 10^−6 M HF or 30 ng/ml EGF
# Method: as §1
# 197. DU145 cells were obtained from American Type Culture Collection and cultured in Dubecco's modified Eagles's medium (DMEM) supplemented with 10% fetal bovine serum (FBS). Cells (1×10^5) were seeded in 35 mm plates and transfected with the SuperFect transfection reagent (Qiagen, Chatworth, Calif.). After 4 hours the media were changed to serum-free DMEM media for 24 hours. Thereafter, the cells were treated with HF, EGF, and vehicle for 18 hours and then lysed for luciferase assay. Luciferase activity was normalized for taansfection efficiency using pRL-TK as an internal control. Luciferase assays were performed using dual-luciferase reporter system (Promega, Madison, Wis.).
# [6] = test system: phospho-ERK1/2; assay: Immunocytochemical staining of phospho-ERK1/2 in patients' prostate tumor biopsies; assay type: in vivo, human; details: recurrent tumors of four patients progressing while receiving flutamide (androgen ablation therapy); one value per patient
# Method: 6. […] Prostate tumor tissue sections from the same patient with either the pre- (A and C) and post-androgen ablation plus flutamide therapy (B and D), were immunohistochemically stained for phosphorylated ERK1/2. Sections were counterstained with Mayer Hematoxylin Blue (A and B). Original magnification ×400.
# 196. Immunocytochemical staining were performed on formalin-fixed, paraffin-embedded tissue sections using antibodies ERK1,and ERK2 (SC-94, and SC-154, 1/400 dilution), and phospho-ERK1/2 (SC-7383, 1/50 dilution) all from Santa Cruz (Santa Cruz, Calif.). Sections were cut at 4 to 5 microns and deparaffinized according to established procedures and quenched with 3% hydrogen peroxide for 6 min. Antigen unmasking with heat retrieval in citrate buffer/pH 6.0 was accomplished by placing slides in a microwave (1500 watts) pressure cooker for 30 minutes. Slides were rinsed and stained for 45 minutes with primary antibody, and then incubated for 20 min with secondary antibody and streptavidin-HRP. Slides were developed with AEC+, rinsed and counterstained with Mayer Hematoxylin Blue in 0.3% ammonia water.
# 201. […] Each slide was examined and scored the number of the cells stained positive for phosph-ERK1/2 under the 100× high power field. […]
# [7] = test system: AR; assay: AR phosphorylation in LNCaP cells (immunoprecipitation / Western blot); assay type: cell-based, human
# Method: (§2) 14. […] Anti-pSer, anti-phosphoserine antibody. […] Total AR protein was blotted using an anti-AR antibody (AR), and AR phosphorylation was detected using an anti-phospho-AR (S210) antibody (pAR). […] The cells were then harvested for immunoprecipitation with anti-AR antibody and Western blot analysis. NH27, anti-AR antibody, anti-pSer, anti-phosphoserine antibody.
# (§3) 219. The imrnunoprecipitation and Western blotting were performed as previously described (Lin, H. K., et al. (2001) Proc Natl Acad Sci USA 98, 7200-7205). The cell extracts (1 mg) were immunoprecipitated with the indicated antibody. The immunocomplexes were subjected to 8% SDS-PAGE and immunoblotted with the indicated antibody.
# [8] = test system: AR; assay: AR phosphorylation in COS-1 cells transfected with wtAR or mtAR; assay type: cell-based
# Method: as §2, §3
compound,measurement,setting,value
C[C@@H]1C[C@@H]([C@H](O)CC2CC(=O)NC(=O)C2)C(=O)[C@@H](C)C1 [cycloheximide],block of MAP kinase activation mediated by HF or EGF,"[1]; Ten ng/ml cycloheximide, 1 hour pre-treatment",failed to block MAP kinase activation
same,MAP kinase activation with ethanol added to cycloheximide treatment,[1]; no HF or EGF (lane 7),slight increment
COc1cc2ncnc(Nc3cccc(Cl)c3)c2cc1OC [AG1478],levels of phospho-ERK1/2 induced by either HF or EGF,[1]; preincubation with 100 nM for 1 hour,decreased levels of phospho-ERK1/2
N#CC(=C(/N)Sc1ccccc1N)/C(C#N)=C(\N)Sc1ccccc1N [U0126],block of HF-mediated MAP kinase activation,[1],can block HF-mediated MAP kinase activation
CS/C(N)=C(C#N)/C(C#N)=C(\N)SC [U0124],block of HF-mediated MAP kinase activation,[1]; DU145 cells pre-incubated with inhibitor before HF treatment,not
EGF: epidermal growth factor,Raf detected in the Ras immunocomplex,[2],detected
same,cyclin D1 expression,[3]; HF (1 μM) or EGF (10 ng/ml) for 12 hours after serum starvation,induced
same,"other cell cycle related gene products (p27, p21, Ki67, PCNA)",[3]; after HF- or EGF-treatment,no significant change
same,cell proliferation,[4]; cells maintained in 10% FBS medium (data not shown),no significant stimulation of cell proliferation
same,cell proliferation,[4]; low serum (0.5% FBS) after serum starvation,stimulate the DU 145 cell growth significant; also recorded: can promote cell proliferation
same,induction of cyclin D1 promoter (−1745D1-Luc) activity,[5],about 2 fold
"CC1=C(/C=C/C(C)=C\C=C\C(C)=C\C(=O)O)C(C)(C)CCC1 [9 cis-retinoic acid, 9-cis retinoic acid]",Raf detected in the Ras immunocomplex,[2],not
CC(C)C(=O)Nc1ccc([N+](=O)[O-])c(C(F)(F)F)c1 [Flutamide],cells stained positive for phospho-ERK1/2,[6],30% and 41% and 52% and 45%
IGF-1: insulin-like growth factor-1,AR phosphorylation,"[7]; LNCaP cells (P38), IGF-1 for 4 hours",induced AR phosphorylation
same,AR phosphorylation at S210,"[7]; LNCaP cells treated with IGF-1, site-specific anti-phosphoserine AR antibody",detected
same,phosphorylation of mutant AR (mtAR) (S210A/S790A),[8]; IGF-1,did not induce phosphorylation
same,wild-type (wtAR) phosphorylation,[8]; IGF-1 for 4 hours,induced wild-type (wtAR) phosphorylation
